What was measured:
[1] = multiple sclerosis patients; cited from earlier work
[2] = test system: NMDA receptors; settings: perfused, ventilated rat lungs; cited from earlier work
[3] = test system: neurons; settings: cited from earlier work
[4] = rat, in vivo; cited from earlier work
[5] = injected directly into the VNC prior to UVD; cited from earlier work
[6] = following nerve injury; cited from earlier work
[7] = test system: osteoblasts; settings: cited from earlier work
[8] = cited from earlier work
[9] = Tinnitus patient treated with chronic oral memantine; type: in vivo, human; settings: first patient in the USA, category I tinnitus, chronic oral 10 mg BID
From the text: The efficacy of current therapy for tinnitus is controversial but includes devices that mask tinnitus and TRT (tinnitus retraining therapy) which is a technique utilizing white noise for a period of time to assist the patient to habituate to their tinnitus. […] We postulate that the administration of memantine would attenuate the neurotoxicity mechanisms of cochlear disorders and tinnitus, and also attenuate any abnormal neuronal plasticity in the temporal-parietal association cortex resulting in clinical efficacy for the treatment of tinnitus.

[10] = test system: NMDA receptor; settings: cited from earlier work
[11] = test system: NR2C and NR2D subunits; settings: cited from earlier work
[12] = target: NR1A/2B (Homo sapiens, UniProt Q05586+Q13224); settings: cited from earlier work
Chain of NR1A/2B (Q13224 27-1484, other chains not shown): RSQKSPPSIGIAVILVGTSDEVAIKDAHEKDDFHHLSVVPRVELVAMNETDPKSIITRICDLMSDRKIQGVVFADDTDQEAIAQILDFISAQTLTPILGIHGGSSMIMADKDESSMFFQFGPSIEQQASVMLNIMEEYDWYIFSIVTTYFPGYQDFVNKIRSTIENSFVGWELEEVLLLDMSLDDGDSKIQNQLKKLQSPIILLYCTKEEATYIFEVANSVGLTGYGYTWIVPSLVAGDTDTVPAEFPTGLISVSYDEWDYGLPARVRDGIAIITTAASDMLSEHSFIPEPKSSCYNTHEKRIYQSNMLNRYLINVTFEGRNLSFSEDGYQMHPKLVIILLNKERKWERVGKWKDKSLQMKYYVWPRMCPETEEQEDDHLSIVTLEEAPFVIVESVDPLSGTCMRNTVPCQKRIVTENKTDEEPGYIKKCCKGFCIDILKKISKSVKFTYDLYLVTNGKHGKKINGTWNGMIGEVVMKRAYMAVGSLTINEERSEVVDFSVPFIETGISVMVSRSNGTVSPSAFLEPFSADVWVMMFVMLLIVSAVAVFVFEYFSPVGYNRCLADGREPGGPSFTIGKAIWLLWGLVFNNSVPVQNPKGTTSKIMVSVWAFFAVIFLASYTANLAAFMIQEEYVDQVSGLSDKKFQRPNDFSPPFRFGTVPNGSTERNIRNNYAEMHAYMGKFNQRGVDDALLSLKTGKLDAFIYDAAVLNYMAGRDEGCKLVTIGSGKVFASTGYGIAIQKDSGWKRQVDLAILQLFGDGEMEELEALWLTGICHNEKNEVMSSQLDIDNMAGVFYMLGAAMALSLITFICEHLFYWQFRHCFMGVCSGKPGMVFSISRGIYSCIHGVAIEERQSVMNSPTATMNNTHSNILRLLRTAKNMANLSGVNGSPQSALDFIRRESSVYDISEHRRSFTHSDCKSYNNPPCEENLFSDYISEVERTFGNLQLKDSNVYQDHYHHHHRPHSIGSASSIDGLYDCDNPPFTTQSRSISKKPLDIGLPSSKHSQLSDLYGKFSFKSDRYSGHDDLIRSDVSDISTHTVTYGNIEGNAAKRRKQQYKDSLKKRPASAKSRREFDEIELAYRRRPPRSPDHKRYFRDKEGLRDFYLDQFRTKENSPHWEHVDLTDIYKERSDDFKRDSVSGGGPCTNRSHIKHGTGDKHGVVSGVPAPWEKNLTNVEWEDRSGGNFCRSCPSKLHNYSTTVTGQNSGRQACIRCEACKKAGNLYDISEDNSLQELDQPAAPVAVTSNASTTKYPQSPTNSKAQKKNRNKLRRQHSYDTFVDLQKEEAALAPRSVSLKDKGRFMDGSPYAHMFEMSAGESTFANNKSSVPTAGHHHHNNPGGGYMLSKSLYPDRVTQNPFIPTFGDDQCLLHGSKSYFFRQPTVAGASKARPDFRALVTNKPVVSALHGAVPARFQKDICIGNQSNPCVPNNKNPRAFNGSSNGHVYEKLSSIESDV

[13] = target: NR2A of the NMDA receptor (Homo sapiens, UniProt Q05586+Q12879); settings: cited from earlier work
Chain of NR2A of the NMDA receptor (Q12879 23-1464, other chains not shown): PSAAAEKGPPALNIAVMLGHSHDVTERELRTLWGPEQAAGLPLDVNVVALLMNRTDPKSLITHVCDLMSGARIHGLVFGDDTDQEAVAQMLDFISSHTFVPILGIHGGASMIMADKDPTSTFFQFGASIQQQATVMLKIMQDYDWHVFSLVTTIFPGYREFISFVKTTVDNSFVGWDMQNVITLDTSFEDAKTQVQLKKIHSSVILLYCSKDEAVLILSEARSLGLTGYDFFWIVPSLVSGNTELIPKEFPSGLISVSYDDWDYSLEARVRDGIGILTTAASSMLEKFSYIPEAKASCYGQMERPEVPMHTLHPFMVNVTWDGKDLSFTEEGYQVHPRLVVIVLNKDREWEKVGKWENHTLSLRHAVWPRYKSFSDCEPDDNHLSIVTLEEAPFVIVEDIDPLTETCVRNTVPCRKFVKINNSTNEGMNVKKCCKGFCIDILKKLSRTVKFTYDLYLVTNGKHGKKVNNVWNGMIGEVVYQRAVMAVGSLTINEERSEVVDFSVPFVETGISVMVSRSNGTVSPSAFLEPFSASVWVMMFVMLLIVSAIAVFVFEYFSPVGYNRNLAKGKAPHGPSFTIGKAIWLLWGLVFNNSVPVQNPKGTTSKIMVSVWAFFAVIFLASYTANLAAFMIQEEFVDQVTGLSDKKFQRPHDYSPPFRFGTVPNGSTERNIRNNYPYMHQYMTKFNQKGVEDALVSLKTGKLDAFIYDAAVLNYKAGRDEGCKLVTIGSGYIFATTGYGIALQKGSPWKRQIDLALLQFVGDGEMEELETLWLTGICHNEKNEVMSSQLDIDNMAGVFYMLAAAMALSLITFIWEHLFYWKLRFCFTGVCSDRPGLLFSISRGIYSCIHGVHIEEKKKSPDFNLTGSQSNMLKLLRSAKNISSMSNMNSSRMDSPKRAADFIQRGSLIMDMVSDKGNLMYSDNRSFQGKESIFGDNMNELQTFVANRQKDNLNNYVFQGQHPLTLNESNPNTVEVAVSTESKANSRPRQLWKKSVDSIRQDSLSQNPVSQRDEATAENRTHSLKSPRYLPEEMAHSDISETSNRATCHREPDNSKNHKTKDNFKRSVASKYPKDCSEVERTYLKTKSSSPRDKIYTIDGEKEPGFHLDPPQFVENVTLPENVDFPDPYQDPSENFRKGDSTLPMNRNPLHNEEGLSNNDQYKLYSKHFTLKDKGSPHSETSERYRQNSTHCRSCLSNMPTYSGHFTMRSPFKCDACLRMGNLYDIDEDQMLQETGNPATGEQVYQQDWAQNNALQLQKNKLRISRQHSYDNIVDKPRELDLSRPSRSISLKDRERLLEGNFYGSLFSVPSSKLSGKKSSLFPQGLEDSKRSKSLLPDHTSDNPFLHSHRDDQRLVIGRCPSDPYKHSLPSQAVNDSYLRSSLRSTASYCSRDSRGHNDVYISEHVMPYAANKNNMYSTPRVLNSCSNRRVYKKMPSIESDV

[14] = test system: L- and N type voltage-activated calcium channels, Na+ channels; settings: cited from earlier work
[15] = test system: GABA or AMPA receptors; settings: cited from earlier work
[16] = test system: D2, AMPA, kainate, alpha 1, alpha 2, and 5-HT re-uptake; settings: alpha 1, alpha 2, 5-HT re-uptake; cited from earlier work
[17] = test system: hippocampal slices; settings: cited from earlier work
[18] = test system: neuronal ganglion cell; settings: administered 4 hours after NMDA neurotoxicity; cited from earlier work
[19] = test system: cortical cell cultures; settings: cited from earlier work
[20] = cited from earlier work; remark: listed apart in the source
[21] = rat, in vivo; cited from earlier work; remark: listed apart in the source
[22] = lesions of the entorhinal cortex; cited from earlier work
[23] = up to 2 hours after induction of hypoxia/ischemia, immature and adult rats; cited from earlier work
[24] = EAE (Wallstrom, 1996); cited from earlier work
[25] = pre- or posttreatment, 20 mg/kg IP (von Euler, 1997); cited from earlier work
[26] = rats with experimental acute liver failure; cited from earlier work
[27] = test system: tumor cells including lung, rhabdomyosarcoma, medulloblastoma, and thyroid adenocarcinoma; settings: cited from earlier work
[28] = test system: glutamate secreting tumors; settings: 25 mg/kg IP; cited from earlier work
[29] = test system: BDNF mRNA; settings: rat limbic system; cited from earlier work
[30] = test system: inner hair cell afferents; settings: animal models; cited from earlier work
[31] = one patient; metabolic deficits by PET not totally reversed; cited from earlier work
[32] = moderate and severe Alzheimer's disease; cited from earlier work
[33] = in vivo; cited from earlier work
[34] = animal studies; cited from earlier work
[35] = cited from earlier work; remark: listed apart in the source
[36] = rat, brain microdialysis with in vivo recovery; cited from earlier work
[37] = cited from earlier work; remark: listed apart in the source
[38] = animals studies; cited from earlier work
[39] = parallel treatment with memantine and 3-NP; cited from earlier work
[40] = in vivo; cited from earlier work; remark: listed apart in the source
[41] = in vivo; cited from earlier work; remark: listed apart in the source
[42] = acute, sub-anesthetic doses, normal subjects; cited from earlier work
[43] = healthy subjects; cited from earlier work

## NCC1(CC(=O)O)CCCCC1 [gabapentin]
[1]
  treatment of APN: efficacy

## C[C@]12N[C@H](Cc3ccccc31)c1ccccc12 [MK-801]
[2]
  pulmonary injury by NMDA receptor activation: prevented
[3]
  neuronal loss by neurotoxic concentrations of glutamate: attenuated the neuronal loss
[4]
  cortical spreading after infarction: able to inhibit cortical spreading
  hyperexcitability after infarction: unable to reverse the hyperexcitability
[5]
  severity of the vestibular syndrome (SON, YHT): reduced the severity of the vestibular syndrome
[6]
  motorneurone death: reduced motorneurone death
[7]
  inward currents in response to NMDA agonist stimulation: significant decrease in inward currents
[8]; NMDA
  increased airway perfusion pressure produced by NMDA: abolished
[8]; capsaicin
  acute elevation in airway perfusion pressure by capsaicin: attenuated in both magnitude and duration

## CC12CC3CC(C)(C1)CC(N)(C3)C2.Cl [memantine, 1-amino-3,5-dimethyl-adamantane hydrochloride]
[9]
  response of tinnitus: successfully treated
[10]
  NMDA channels left unblocked: 20%
[10]; does not affect other ligand-gated or voltage-gated channels
  levels at which action is specific for antagonism of the NMDA receptor: 1 to 10 µM
[11]
  block of NR2C and NR2D subunits: preferentially blocks
[12]
  potency at NR1A/2B: intermediate potency
[13]
  effects at NR2A: weak effects
[14]
  antagonism at L- and N type voltage-activated calcium channels, Na+ channels: weak antagonist
[15]
  effect on GABA or AMPA receptors: no effect
[16]
  concentrations at which memantine interacts with multiple receptors: greater than 100 μM
[17]; 6-10 μM
  effect on LTP in hippocampal slices: do not attenuate LTP
[17]; in vitro
  increase of the CA1 pyramidal cell spike: 100%
[17]; relevant human brain concentrations (1-μM)
  synaptic functioning after removal of Mg++: normalized synaptic functioning
[18]
  neuronal ganglion cell death: prevention of neuronal ganglion cell death
[19]
  apoptosis induced by gp120: prevention of apoptosis
[20]; in vivo
  hippocampal damage, convulsions and cell death induced by ICV QUIN: prevents hippocampal damage, convulsions and cell death
[20]; simultaneous infusion of memantine
  memory deficits by chronic ICV infusion of QUIN: blocked
[21]
  lesions of the NBM produced by mitochondrial toxins (3-NP): inhibited
  striatal lesions by malonate: significantly attenuated
[22]
  time to normalized learning: ≤ 8 days
  time to reversal of learning impairment: ≤ 3 days
[23]
  infarct size: significantly reduce infarct size
[24]
  effect on CNS inflammation, IFN-γ, lymphocytic proliferation, systemic immunity: failed to have any effect
[25]
  neurological or morphological outcome: failed to attenuate
[26]
  neurological status: significant improvement
[27]; in vitro
  growth of brain and systemic glutamate secreting tumors: slow the growth
[27]; lung, rhabdomyosarcoma, medulloblastoma, thyroid adenocarcinoma
  in vitro proliferation of tumor cells: decrease in vitro proliferation
[27]; unobtainable at therapeutic human doses
  levels at which in vitro proliferation was decreased: 100 μM/ml
[28]
  decrease of tumor volume: 25%
  tumor expansion facilitated by glutamate secretion: blocked
[29]
  BDNF mRNA levels: increased BDNF mRNA levels
[30]
  NMDA stimulated activity of inner hair cell afferents: selectively inhibit
[1]
  treatment of APN: efficacy
[31]
  cognitive effects in alcoholic dementia: reversed cognitive effects
[32]
  rate of cognitive decline: efficacy in decreasing the rate of cognitive decline
[33]
  efficacy as an anti-convulsant or in epilepsy: minimal efficacy
[34]
  eliminating symptoms of drug withdrawal and addiction: conflicting and usually negative
[35]; after oral intake
  TTP (time-to-peak concentration): 6 to 8 h
[35]; due to albumin binding
  decrease of CSF (cerebrospinal fluid) concentration: 20-50%
[35]; human subjects
  CSF concentrations lower (CSF sampling): 30-40%
[35]; humans, 20 mg per day
  serum levels: 500 to 1000 nM
[35]; in vivo
  blood brain barrier penetration: easily penetrates the blood brain barrier
  plasma clearance half-life (t1/2): 60 to 100 h
  protein binding: 42-45%
  time to steady-state plasma levels: approximately 21 days
[35]; oral
  absorption from the gastrointestinal tract: completely absorbed
[35]; patients treated with 10-30 mg per day
  plasma levels: 400 to 1000 nM
[36]
  free brain concentrations lower: 20-30%
[37]; combined with AchE inhibitors
  drug interaction with AchE (acetylcholinesterase inhibitors): no adverse drug interaction
[37]; dose-related
  adverse events: nausea, dizziness, and restlessness
[37]; human, in vivo
  hepatic toxicity: minimal hepatic toxicity
[37]; patients who do not suffer from migraine, mild, usually transitory, dose related
  patients with headache as adverse event: up to 10%
[38]
  induction of HSP, neuronal vacuolization and necrosis: No induction of HSP (heat shock protein) or neuronal vacuolization and necrosis
[39]
  enhanced neuronal density drop-out in the striatum: 26%
  reduction in volume in the striatum: 11.5%
[40]
  therapeutic concentration that produces efficacy in Parkinson's disease: less than 2 μM
[41]
  placental penetration: good placental penetration
  teratogenesis: minimal teratogenesis
  toxicity to the fetus: non-toxic properties to the fetus

## CNC1(c2ccccc2Cl)CCCCC1=O (stereo not shown) [ketamine]
[42]
  memory: delayed memory recall and decreases in verbal and nonverbal memory
[43]
  smooth pursuit of eye movements: deficits in smooth pursuit of eye movements

Source: patent US20040102525A1, “Compositions and methods of treating neurological disease and providing neuroprotection” (priority 2002, published 2004)
